{"source": "patent US20260242320A1", "about": "“USE OF CANNABIDIOL DERIVATIVE IN PREPARATION OF MEDICAMENT” (priority 2023, published 2026)", "key": {"BV-2 cellular viability": {"test_system": "BV-2 cellular viability", "experiment": "Cell viability / cytotoxicity by crystal violet staining", "type": "cell-based", "method": "100 μL of culture medium were transferred to a black 96-well plate for later use. Following removal of old culture medium, 100 μL of 4% paraformaldehyde was added for fixation. Fixation was performed for 5 minutes. Paraformaldehyde was then removed, and 100 μL of 0.05% crystal violet was added. The resultant mixture was incubated for 15 minutes, after which time crystal violet was removed and the mixture was slowly rinsed with water three times. Next, 150 μL of ethanol was added, and the mixture was incubated for 15 minutes. After incubation, the absorbance was measured at 540 nm using a spectrophotometer. Viability (%)=100× Fluorescence values of the dosing group/Fluorescence values of the blank group.\nCell viability was determined by crystal violet staining. Briefly, BV-2 cells were treated as indicated in the NO assay. The media was removed, and then 4% paraformaldehyde was added to fix the cells for 5 min. Cells were stained with 100 μL 0.05% crystal violet for 15 min and washed with water 2 times. Next, 150 μL of ethanol was added to each well, and the plate was incubated for 15 min at room temperature. Absorbance at 540 nm was measured using a SYNERGY H1 Microplate Reader."}, "[1]": {"test_system": "3×Tg Alzheimer's disease mice", "experiment": "Learning and memory tests in Alzheimer's disease model mice (Morris water maze, Y-maze)", "type": "in vivo", "conditions": "i.p., 45 days", "excerpt": "For Alzheimer's disease behavioral experiments (Morris water maze, open field experiment, novel object recognition, Y-maze, and elevated cross maze), triple transgenic mouse models (B6:129-Psen1tm1Mpm Tg (APPswe, tauP301L) 1Lfa/J, 3×Tg) were purchased from the Jax Laboratory in the United States. The wild-type mice (C57BL/6J, WT) were purchased from Beijing Vital River Laboratory Animal Technology Co., Ltd. After 45 days of intraperitoneal injection of CIAC001, all mice were subjected to subsequent behavioral experiments. In order to minimize the use of mice, the mice are first tested for sufficient physical strength and normal mental states. Only one behavioral experiment is conducted per day based on the following schedule: day 1: open field test; day 2-3: novel object recognition; day 3: elevated plus maze; day 4: Y-maze; day 5-13: Morris water maze. […]\nPlace navigation training was performed from days 1 to 5. […] The time taken for the mouse to find the platform was recorded, representing the mouse's escape latency. […]\nThe spatial exploration test was conducted 24 hours and 72 hours after completion of place navigation training. The test conducted at 24 hours assessed short-term memory, while the test performed at 72 hours assessed long-term memory. […]"}, "[2]": {"test_system": "hippocampus of transgene mice", "experiment": "Potential of hippocampus (LTP) measurement", "type": "in vivo", "method": "Mouse brains were quickly removed following anesthetization using isoflurane and euthanasia by cervical dislocation and immersed in pre-chilled artificial cerebrospinal fluid (ACSF) for 3 minutes while continuously supplying O2 to the fluid to maintain brain activity. Then, the brain was then quickly fixed with glue onto a platform of a vibratome (with the olfactory bulb facing up and the hindbrain facing down) and placed in well-oxygenated, pre-chilled ACSF. The brain was then sliced at 300 μm per slice with a cutting speed of 0.14 mm/s, starting from the appearance of the hippocampus. The collected brain slices were divided into left and right hemispheres and incubated in an O2-filled water bath at 32° C. for 2 hours. Afterwards, computer software used for recording was adjusted to ensure a stable baseline. The incubated brain slices were placed in the center of an electrode, with the brightest line of the CA1 region in the hippocampus spanning diagonally across the baseline, and fixed with a grid and iron block inside the recording device. Each potential in the electrode was stimulated to find the optimal stimulation point. High-frequency stimulation was then performed at the optimal point. Software was then used to record the changes in electrical potential at each electrode point."}}, "data": [{"molecule": "C=C(C)[C@@H]1CCC(C)=C[C@H]1c1c(O)cc(C(C)n2nccn2)cc1O", "note": "(stereo partly drawn) [CIAC001, (1′R,2′R)-4-(1-(2H-1,2,3-Triazol-2-yl)ethyl)-5′-methyl-2′-(prop-1-en-2-yl)-1′,2′,3′,4′-tetrahydro-[1,1′-biphenyl]-2,6-diol]", "values": [{"measurement": "IC50", "setting": "BV-2 cellular viability; Mus musculus, BV-2 cells, read-out: Cellular toxicity (IC50 inhibiting BV-2 cellular viability)", "result": "57.8 ± 7.6", "unit": "µM"}, {"measurement": "fold less cytotoxicity compared to CBD", "setting": "BV-2 cellular viability; vs CBD", "result": 6.8, "unit": "fold"}, {"measurement": "learning and memory abilities of Alzheimer's disease mice", "setting": "[1]", "result": "improves learning and memory abilities of Alzheimer's disease mice at a lower dose than cannabidiol"}, {"measurement": "increase of hippocampal potential", "setting": "[2]", "result": "~500", "unit": "%"}]}]}
